From PubChem BioAssay AID248 (DTP/NCI, 2004)
Toxic doses and inconclusive results are not listed.

Tested on: L1210 leukemia ip in BDF1 mice, survival T/C
Test: NCI In Vivo Anticancer Drug Screen. Data for tumor model L1210 Leukemia (intraperitoneal) in B6D2F1 (BDF1) mice
Details: endpoint: mean survival time, higher = longer survival
Procedure, shortened: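 In this screen, tumor-bearing mice given compound are compared to those given vehicle, and their survival values are reported as a treated-to-control quotient.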

[1] = dose: 100.0 mg/kg/injection, schedule: Q04DX003 (ip), vehicle: saline with Tween-80
[2] = dose: 200.0 mg/kg/injection, schedule: Q04DX003 (ip), vehicle: saline with Tween-80
[3] = dose: 100.0 mg/kg/injection, schedule: Q04DX002 (ip), vehicle: Klucel (hydroxypropylcellulose) (HPC)
[4] = dose: 200.0 mg/kg/injection, schedule: Q04DX002 (ip), vehicle: Klucel (hydroxypropylcellulose) (HPC)
[5] = dose: 400.0 mg/kg/injection, schedule: Q04DX002 (ip), vehicle: Klucel (hydroxypropylcellulose) (HPC)
[6] = dose: 100.0 mg/kg/injection, schedule: Q01DX009 (ip), vehicle: saline with Tween-80
[7] = dose: 200.0 mg/kg/injection, schedule: Q01DX009 (ip), vehicle: saline

CCNC(=S)S.[Zn+2]
T/C (dose: 1.0 mg/kg/injection, schedule: Q01DX015 (ip), vehicle: saline): 102 % of control | T/C (dose: 2.0 mg/kg/injection, schedule: Q01DX015 (ip), vehicle: saline): 100 % of control | T/C (dose: 4.0 mg/kg/injection, schedule: Q01DX015 (ip), vehicle: saline): 102 % of control | T/C (dose: 8.0 mg/kg/injection, schedule: Q01DX015 (ip), vehicle: saline): 108 % of control | T/C (dose: 10.0 mg/kg/injection, schedule: Q01DX001 (ip), vehicle: carboxymethylcellulose (CMC)): 95 % of control | T/C (dose: 20.0 mg/kg/injection, schedule: Q01DX001 (ip), vehicle: carboxymethylcellulose (CMC)): 97 % of control | T/C (dose: 40.0 mg/kg/injection, schedule: Q01DX001 (ip), vehicle: carboxymethylcellulose (CMC)): 95 % of control | T/C (dose: 80.0 mg/kg/injection, schedule: Q01DX001 (ip), vehicle: carboxymethylcellulose (CMC)): 97 % of control

N#Cc1cnn2c(=O)[nH]cnc12
T/C (dose: 100.0 mg/kg/injection, schedule: Q01DX009 (ip), vehicle: saline sonified): 95 % of control | T/C (dose: 100.0 mg/kg/injection, schedule: Q04DX003 (ip), vehicle: saline sonified): 93 % of control | T/C (dose: 200.0 mg/kg/injection, schedule: Q01DX009 (ip), vehicle: saline sonified): 91 % of control | T/C (dose: 200.0 mg/kg/injection, schedule: Q04DX003 (ip), vehicle: saline sonified): 101 % of control | T/C (dose: 400.0 mg/kg/injection, schedule: Q04DX003 (ip), vehicle: saline sonified): 95 % of control

COc1cccc(C[Si](C)C)c1
T/C [1]: 104 % of control | T/C [2]: 107 % of control

CCOc1ccc(N=Cc2ccccc2OC(=O)c2ccccc2)cc1
T/C [3]: 105 % of control | T/C [4]: 101 % of control | T/C [5]: 97 % of control

NC(=O)OCC#CCN1CCCC1
T/C (dose: 5.0 mg/kg/injection, schedule: Q04DX003 (ip), vehicle: saline with Tween-80): 96 % of control | T/C (dose: 10.0 mg/kg/injection, schedule: Q04DX003 (ip), vehicle: saline with Tween-80): 98 % of control | T/C (dose: 20.0 mg/kg/injection, schedule: Q04DX003 (ip), vehicle: saline with Tween-80): 93 % of control

COC(=O)C1=CCC=CC1
T/C [1]: 102 % of control | T/C [2]: 96 % of control | T/C (dose: 400.0 mg/kg/injection, schedule: Q04DX003 (ip), vehicle: saline with Tween-80): 93 % of control

CCCP(=S)(CCC)P(=S)(CCC)CCC
T/C [3]: 100 % of control | T/C [4]: 92 % of control | T/C [5]: 92 % of control

CCCCC(C)(CCN)CCCC
T/C (dose: 4.0 mg/kg/injection, schedule: Q01DX015 (ip), vehicle: carboxymethylcellulose (CMC)): 88 % of control | T/C (dose: 8.0 mg/kg/injection, schedule: Q01DX015 (ip), vehicle: carboxymethylcellulose (CMC)): 96 % of control | T/C (dose: 16.0 mg/kg/injection, schedule: Q01DX015 (ip), vehicle: carboxymethylcellulose (CMC)): 107 % of control | T/C (dose: 32.0 mg/kg/injection, schedule: Q01DX015 (ip), vehicle: carboxymethylcellulose (CMC)): 90 % of control | T/C (dose: 48.0 mg/kg/injection, schedule: Q01DX015 (ip), vehicle: carboxymethylcellulose (CMC)): 100 % of control | T/C (dose: 50.0 mg/kg/injection, schedule: Q01DX001 (ip), vehicle: carboxymethylcellulose (CMC)): 111 % of control | T/C (dose: 64.0 mg/kg/injection, schedule: Q01DX015 (ip), vehicle: carboxymethylcellulose (CMC)): 93 % of control | T/C (dose: 100.0 mg/kg/injection, schedule: Q01DX001 (ip), vehicle: carboxymethylcellulose (CMC)): 96 % of control | T/C (dose: 100.0 mg/kg/injection, schedule: Q01DX015 (ip), vehicle: carboxymethylcellulose (CMC)): 98 % of control | T/C (dose: 150.0 mg/kg/injection, schedule: Q01DX015 (ip), vehicle: carboxymethylcellulose (CMC)): 100 % of control | T/C (dose: 200.0 mg/kg/injection, schedule: Q01DX001 (ip), vehicle: carboxymethylcellulose (CMC)): 102 % of control | T/C (dose: 400.0 mg/kg/injection, schedule: Q01DX001 (ip), vehicle: carboxymethylcellulose (CMC)): 113 % of control

O=C1Nc2ccccc2/C1=C/C(=O)c1c[nH]c2ccccc12
T/C (dose: 50.0 mg/kg/injection, schedule: Q01DX009 (ip), vehicle: saline with Tween-80): 101 % of control | T/C [6]: 101 % of control | T/C (dose: 200.0 mg/kg/injection, schedule: Q01DX009 (ip), vehicle: saline with Tween-80): 96 % of control

NC(N)=NC(N)=Nc1ccccc1Br
T/C (dose: 50.0 mg/kg/injection, schedule: Q01DX009 (ip), vehicle: Klucel (hydroxypropylcellulose) (HPC)): 106 % of control | T/C (dose: 100.0 mg/kg/injection, schedule: Q01DX009 (ip), vehicle: Klucel (hydroxypropylcellulose) (HPC)): 104 % of control | T/C [3]: 107 % of control | T/C (dose: 100.0 mg/kg/injection, schedule: Q04DX003 (ip), vehicle: Klucel (hydroxypropylcellulose) (HPC)): 98 % of control | T/C [4]: 104 % of control | T/C (dose: 200.0 mg/kg/injection, schedule: Q04DX003 (ip), vehicle: Klucel (hydroxypropylcellulose) (HPC)): 110 % of control

O=c1[nH]c(CCCOc2ccccc2)nc2ccccc12
T/C (dose: 50.0 mg/kg/injection, schedule: Q01DX001 (ip), vehicle: Klucel (hydroxypropylcellulose) (HPC)): 93 % of control | T/C (dose: 100.0 mg/kg/injection, schedule: Q01DX001 (ip), vehicle: Klucel (hydroxypropylcellulose) (HPC)): 104 % of control | T/C (dose: 200.0 mg/kg/injection, schedule: Q01DX001 (ip), vehicle: Klucel (hydroxypropylcellulose) (HPC)): 104 % of control

Clc1ccc(N/N=C(\Cc2ccccn2)c2ccccc2)cc1
T/C (dose: 100.0 mg/kg/injection, schedule: Q04DX003 (sc), vehicle: olive oil, sesame oil, peanut oil): 101 % of control | T/C (dose: 200.0 mg/kg/injection, schedule: Q04DX003 (sc), vehicle: olive oil, sesame oil, peanut oil): 110 % of control | T/C (dose: 400.0 mg/kg/injection, schedule: Q04DX003 (sc), vehicle: olive oil, sesame oil, peanut oil): 103 % of control

CCc1c2cc(OC)c(OC)cc2cc2c3cc(OC)c(OC)cc3cc[n+]12 (tested in a mixture with another compound)
T/C (dose: 25.0 mg/kg/injection, schedule: Q01DX009 (ip), vehicle: saline): 116 % of control | T/C (dose: 50.0 mg/kg/injection, schedule: Q01DX009 (ip), vehicle: saline): 123 % of control | T/C (dose: 66.0 mg/kg/injection, schedule: Q01DX009 (ip), vehicle: saline with Tween-80): 150 % of control | T/C (dose: 88.0 mg/kg/injection, schedule: Q04DX003 (ip), vehicle: saline): 121 % of control | T/C [6]: 160 % of control | T/C (dose: 150.0 mg/kg/injection, schedule: Q01DX009 (ip), vehicle: saline with Tween-80): 156 % of control | T/C [7]: 89 % of control | T/C (dose: 300.0 mg/kg/injection, schedule: Q04DX003 (ip), vehicle: saline): 107 % of control

CC1(C2CC2)NC(=O)NC1=O (stereo unspecified)
T/C (dose: 100.0 mg/kg/injection, schedule: Q01DX009 (ip), vehicle: saline): 97 % of control | T/C (dose: 100.0 mg/kg/injection, schedule: Q04DX003 (ip), vehicle: saline): 92 % of control | T/C [7]: 89 % of control | T/C (dose: 200.0 mg/kg/injection, schedule: Q04DX003 (ip), vehicle: saline): 97 % of control | T/C (dose: 400.0 mg/kg/injection, schedule: Q01DX009 (ip), vehicle: saline): 95 % of control | T/C (dose: 400.0 mg/kg/injection, schedule: Q04DX003 (ip), vehicle: saline): 95 % of control

COC(=O)C1C2CCC(C2)C1C(=O)OC (stereo unspecified)
T/C [3]: 111 % of control | T/C [4]: 93 % of control | T/C [5]: 107 % of control

CC1CC(OC(=O)CCN2CC2)CC(C)(C)C1 (stereo unspecified)
T/C (dose: 2.5 mg/kg/injection, schedule: Q01DX009 (ip), vehicle: Klucel (hydroxypropylcellulose) (HPC)): 98 % of control | T/C (dose: 5.0 mg/kg/injection, schedule: Q01DX009 (ip), vehicle: Klucel (hydroxypropylcellulose) (HPC)): 101 % of control | T/C (dose: 20.0 mg/kg/injection, schedule: Q01DX009 (ip), vehicle: Klucel (hydroxypropylcellulose) (HPC)): 113 % of control | T/C (dose: 20.0 mg/kg/injection, schedule: Q04DX003 (ip), vehicle: Klucel (hydroxypropylcellulose) (HPC)): 101 % of control | T/C (dose: 40.0 mg/kg/injection, schedule: Q01DX009 (ip), vehicle: Klucel (hydroxypropylcellulose) (HPC)): 107 % of control | T/C (dose: 40.0 mg/kg/injection, schedule: Q04DX003 (ip), vehicle: Klucel (hydroxypropylcellulose) (HPC)): 97 % of control | T/C (dose: 80.0 mg/kg/injection, schedule: Q04DX003 (ip), vehicle: Klucel (hydroxypropylcellulose) (HPC)): 106 % of control

CONP(=O)(NOC)c1ccccc1
T/C (dose: 100.0 mg/kg/injection, schedule: Q01DX001 (ip), vehicle: saline): 103 % of control | T/C (dose: 200.0 mg/kg/injection, schedule: Q01DX001 (ip), vehicle: saline): 95 % of control | T/C (dose: 400.0 mg/kg/injection, schedule: Q01DX001 (ip), vehicle: saline): 90 % of control
